This is an account of results in ChEMBL document CHEMBL1157471, “Dopamine/serotonin receptor ligands. Part 17: a cross-target SAR approach: affinities of azecine-styled ligands for 5-HT(2A) versus D1 and D2 receptors” (Bioorg Med Chem Lett, 2008).

Each structure is given as a SMILES string.

The target of one test is D(1A) dopamine receptor (Homo sapiens, UniProt P21728). In words: Displacement […] from human cloned dopamine D1 receptor.
The next test concerns the target D(2) dopamine receptor (Homo sapiens, UniProt P14416). In words: Displacement […] from human cloned dopamine D2L receptor.
Test [1] concerns the target 5-hydroxytryptamine receptor 2A (Sus scrofa) (UniProt P50129). In words: (§1) Antagonist activity at serotonin 5HT2A receptor assessed as effect on 5HT-induced isometric contractile force in isolated rings of pig coronary artery. The format is functional, tissue-based.
The target of test [2] is 5-hydroxytryptamine receptor 2A (Sus scrofa, UniProt P50129). The description is as §1. The format is functional, tissue-based. As to conditions: read-out: pA2 (converted).
Chain of 5-hydroxytryptamine receptor 2A (P50129 whole entry): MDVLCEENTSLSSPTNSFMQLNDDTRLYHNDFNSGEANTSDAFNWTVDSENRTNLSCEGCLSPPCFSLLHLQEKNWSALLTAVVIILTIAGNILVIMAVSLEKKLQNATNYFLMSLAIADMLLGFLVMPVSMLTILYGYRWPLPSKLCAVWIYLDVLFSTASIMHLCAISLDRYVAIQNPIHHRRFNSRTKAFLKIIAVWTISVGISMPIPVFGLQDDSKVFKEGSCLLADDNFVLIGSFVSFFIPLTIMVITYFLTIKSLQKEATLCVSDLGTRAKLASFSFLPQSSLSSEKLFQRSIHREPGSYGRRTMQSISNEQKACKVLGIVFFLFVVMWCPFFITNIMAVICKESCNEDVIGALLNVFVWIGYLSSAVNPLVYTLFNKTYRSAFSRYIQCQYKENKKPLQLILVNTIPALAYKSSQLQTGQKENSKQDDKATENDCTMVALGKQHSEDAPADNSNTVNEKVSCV

Chain of 5-hydroxytryptamine receptor 2A (Sus scrofa) (P50129 whole entry): as above
Chain of D(1A) dopamine receptor (P21728 whole entry): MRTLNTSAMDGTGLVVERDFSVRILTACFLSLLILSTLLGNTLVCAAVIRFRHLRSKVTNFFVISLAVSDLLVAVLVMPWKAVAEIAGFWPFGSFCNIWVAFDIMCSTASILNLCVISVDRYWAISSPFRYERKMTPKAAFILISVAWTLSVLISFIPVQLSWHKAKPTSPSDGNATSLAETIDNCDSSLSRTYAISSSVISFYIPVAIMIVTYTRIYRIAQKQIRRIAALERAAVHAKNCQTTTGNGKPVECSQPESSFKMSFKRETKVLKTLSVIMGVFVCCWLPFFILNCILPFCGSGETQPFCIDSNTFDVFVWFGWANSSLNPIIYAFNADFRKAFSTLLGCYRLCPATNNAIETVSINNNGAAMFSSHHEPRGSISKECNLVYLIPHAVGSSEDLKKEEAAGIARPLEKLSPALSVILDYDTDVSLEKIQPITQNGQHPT
Chain of D(2) dopamine receptor (P14416 whole entry): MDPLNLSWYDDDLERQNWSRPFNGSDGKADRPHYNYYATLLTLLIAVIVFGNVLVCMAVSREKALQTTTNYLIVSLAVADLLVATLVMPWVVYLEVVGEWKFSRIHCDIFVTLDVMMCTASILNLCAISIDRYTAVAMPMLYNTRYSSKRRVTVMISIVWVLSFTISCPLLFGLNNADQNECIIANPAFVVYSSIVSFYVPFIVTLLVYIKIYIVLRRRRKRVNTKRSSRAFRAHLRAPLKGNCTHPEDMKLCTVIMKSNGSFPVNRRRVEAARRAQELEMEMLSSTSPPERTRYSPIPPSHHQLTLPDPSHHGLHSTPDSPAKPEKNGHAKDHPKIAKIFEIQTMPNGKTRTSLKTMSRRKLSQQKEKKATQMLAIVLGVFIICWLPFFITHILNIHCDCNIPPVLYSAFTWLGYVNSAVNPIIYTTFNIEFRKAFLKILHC

For `CN1CCc2ccccc2Cc2[nH]c3ccccc3c2CC1`, the Ki on D(1A) dopamine receptor was 1.86 nM; on D(2) dopamine receptor, 41.7 nM. Moreover, the pD2 in test [1] worked out at 9.79.

For `COc1ccc2c(c1)CCN(C)CCCc1ccccc1C2`, the Ki on D(1A) dopamine receptor was 21.9 nM. Moreover, the Kb in test [2] is 3.39 nM.

On to `CN1CCc2ccccc2Cc2ccc(O)c(Cl)c2CC1`, for which the Ki on D(1A) dopamine receptor is 0.813 nM; on D(2) dopamine receptor it was 3.55 nM. Besides, the Kb in test [2] was 0.891 nM.

Compound `CN1CCc2ccccc2Cc2[nH]c3ccc(O)cc3c2CC1` gave a Ki on D(2) dopamine receptor of 43.7 nM. Moreover, in test [1], the pD2 was 9.97.

With `O=C(c1ccc(F)cc1)C1CCN(CCn2c(=O)[nH]c3ccccc3c2=O)CC1` [KETANSERIN], the Kb in test [2] was 1.32 nM.

Consider `CN1CCCc2ccccc2Cc2ccc(O)cc2CC1`, for which the results for the inhibitory constant (Ki) on D(1A) dopamine receptor and at D(2) dopamine receptor were 2.67 nM and 41.7 nM, respectively. The Kb in test [2] was 2.14 nM.

For the compound `CN1CCc2ccccc2Cc2ccc(O)cc2CC1`, the Kb in test [2] was 0.646 nM.

`CN1CCCc2c([nH]c3ccccc23)Cc2ccccc2CC1`: the values for the Ki at D(1A) dopamine receptor and on D(2) dopamine receptor were 158 nM and 115 nM, respectively. Besides, the Kb in test [2] was 3.8 nM.

Consider `Oc1ccc2c(c1)CCNCCc1ccccc1C2`, for which the inhibition constant (Ki) on D(1A) dopamine receptor was 63.1 nM; at D(2) dopamine receptor it was 389 nM. Besides, the Kb in test [2] was 61.7 nM.

With `COc1ccc2c(c1)CCN(C)CCc1ccccc1C2`, the affinity on D(1A) dopamine receptor corresponds to a Ki of 22.9 nM. Further, the Kb in test [2] was 2.04 nM.

`CN1CCCc2ccccc2Cc2[nH]c3ccccc3c2CC1`: the Ki at D(1A) dopamine receptor is 2.04 nM; on D(2) dopamine receptor it was 13.5 nM. For the same compound, in test [1], the pD2 was 9.77.

On to `COc1ccc2c(c1)CCCN(C)CCc1ccccc1C2`, for which the Ki on D(1A) dopamine receptor is 28.2 nM; at D(2) dopamine receptor, 24.5 nM. Also, the Kb in test [2] is 5.75 nM.

On to `CCN1CCc2ccccc2Cc2ccc(O)cc2CC1`, for which the Ki was 3.72 nM at D(1A) dopamine receptor and 77.6 nM on D(2) dopamine receptor. In test [2], the Kb is 3.98 nM.

Usually Ki stands for a dissociation constant, usually derived from enzyme kinetics or from competition with a known ligand. A low value points to a stronger hold on the target.
